# Assay results: ChEMBL document CHEMBL1151138, “3'-prenyl-4'-methoxy-isoflavone-7-O-beta-D-(2''-O-p-coumaroyl) glucopyranoside, a novel phytoestrogen from Sopubia delphinifolia” (1990)
# Active and inactive are the calls of the source. The calls are words filed in the database; no cut-off is given here.
# Key:
# Rattus norvegicus [1] = experiment: Estrogenic activity in albino rat assessed as uterus weight at 10 ug, po administered twice daily measured after 4 days; type: functional
# Rattus norvegicus [2] = experiment: Estrogenic activity in albino rat assessed as uterus weight at 20 ug, po administered twice daily measured after 4 days; type: functional
# Rattus norvegicus [3] = experiment: Estrogenic activity in albino rat assessed as uterus weight at 50 ug, po administered twice daily measured after 4 days; type: functional
# Rattus norvegicus [4] = experiment: Estrogenic activity in albino rat assessed as vaginal openings at 10 ug, po administered twice daily measured after 4 days relative to control; type: functional, organism-based
# Rattus norvegicus [5] = experiment: Estrogenic activity in albino rat assessed as vaginal openings at 50 ug, po administered twice daily measured after 4 days relative to control; type: functional
compound,measurement,setting,value
COc1ccc(-c2coc3cc(O[C@@H]4O[C@H](CO)[C@@H](O)[C@H](O)[C@H]4OC(=O)/C=C/c4ccc(O)cc4)ccc3c2=O)cc1CC=C(C)C,Activity,Rattus norvegicus [1],18%
same,Activity,Rattus norvegicus [2],27.79%
same,Activity,Rattus norvegicus [3],33.21%
same,Activity,Rattus norvegicus [4],inactive
same,Activity,Rattus norvegicus [5],100%
